Test results as given in patent US11427548B2 (Arvinas Operations, Inc., priority 2015, dated 2022).
Where two headings read alike, the source gives them in different places.

Biological target: T1, Androgen Receptor (Homo sapiens, UniProt P10275)
T1 construct: endogenous in cells; host or cells: VCaP cells
T1 sequence (P10275 1-920): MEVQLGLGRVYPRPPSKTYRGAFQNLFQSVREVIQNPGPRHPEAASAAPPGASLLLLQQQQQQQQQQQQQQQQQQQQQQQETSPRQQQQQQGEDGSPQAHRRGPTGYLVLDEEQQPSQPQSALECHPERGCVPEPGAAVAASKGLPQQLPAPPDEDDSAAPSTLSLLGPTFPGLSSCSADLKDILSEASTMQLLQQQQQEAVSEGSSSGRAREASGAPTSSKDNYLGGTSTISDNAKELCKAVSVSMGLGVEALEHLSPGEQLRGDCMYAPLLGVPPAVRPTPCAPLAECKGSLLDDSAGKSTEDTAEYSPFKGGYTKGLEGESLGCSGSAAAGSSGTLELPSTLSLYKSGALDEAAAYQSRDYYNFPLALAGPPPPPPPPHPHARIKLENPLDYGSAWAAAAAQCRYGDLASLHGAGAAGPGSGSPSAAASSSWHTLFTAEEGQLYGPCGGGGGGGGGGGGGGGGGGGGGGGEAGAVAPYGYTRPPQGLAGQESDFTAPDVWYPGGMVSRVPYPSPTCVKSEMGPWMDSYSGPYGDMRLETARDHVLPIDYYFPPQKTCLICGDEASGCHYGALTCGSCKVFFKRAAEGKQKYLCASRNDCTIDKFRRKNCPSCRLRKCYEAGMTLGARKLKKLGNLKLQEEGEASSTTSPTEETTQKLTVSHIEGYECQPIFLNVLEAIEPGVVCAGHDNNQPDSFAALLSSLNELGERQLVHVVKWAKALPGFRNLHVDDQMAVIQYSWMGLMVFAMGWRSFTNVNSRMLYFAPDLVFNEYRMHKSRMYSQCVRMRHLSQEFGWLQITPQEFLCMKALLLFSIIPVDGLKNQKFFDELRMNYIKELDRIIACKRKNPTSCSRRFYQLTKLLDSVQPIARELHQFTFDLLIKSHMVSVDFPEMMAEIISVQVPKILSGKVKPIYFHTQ
Assay: Androgen Receptor ELISA assay (PathScan AR ELISA) in VCaP cells: AR degradation, Dmax and DC50
Assay type: cell-based
Summary of the method: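 After 24 h exposure of VCaP cells (charcoal-stripped serum, 0.1 nM R1881 agonist, 0.1% DMSO) to seven half-log compound concentrations, residual AR in lysates was measured by PathScan ELISA (TMB absorbance, 450 nm). Cells were plated at 30,000/well and grown at least 3 days beforehand.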

[1] = VCaP cells; Table 36; read-out: VCaP DC50
[2] = VCaP, VCaP cells; Table 36; read-out: VCaP Dmax (%)
[3] = VCaP cells; Table 35; read-out: VCaP DC50
[4] = VCaP, VCaP cells; Table 35; read-out: VCaP Dmax (%)
[5] = read-out: VCaP DC50; VCaP cells; Table 36

For `Cc1ncsc1-c1ccc(CNC(=O)[C@@H]2C[C@@H](O)CN2C(=O)[C@@H](NC(=O)COCCCNC(=O)c2ccc(C(=O)N[C@H]3C(C)(C)[C@H](Oc4ccc(C#N)c(Cl)c4)C3(C)C)cc2)C(C)(C)C)cc1` [Example 409], the DC50 (VCaP cells; Table 34; read-out: VCaP DC50) was < 50 nM and the Dmax (VCaP, VCaP cells; Table 34; read-out: VCaP Dmax (%)) was 51 to 70%.

`Cc1ncsc1-c1ccc([C@H](C)NC(=O)[C@@H]2C[C@@H](O)CN2C(=O)[C@@H](NC(=O)CO[C@@H](C)CN2CCN(c3ccc(C(=O)N[C@H]4C(C)(C)[C@H](Oc5ccc(C#N)c(Cl)c5)C4(C)C)cc3)CC2)C(C)(C)C)cc1` [Example 639, (1S,4R)-1-((S)-2-(2-(((S)-1-(4-(4-(((1r,3S)-3-(3-chloro-4-cyanophenoxy)-2,2,4,4-tetramethylcyclobutyl)carbamoyl)phenyl)piper-azin-1-yl)propan-2-yl)oxy)acetamido)-3,3-dimethylbutanoyl)-4-hydroxy-N-((S)-1-(4-(4-methylthiazol-5-yl)phenyl)ethyl)pyrrolidine-2-carboxamide] was tested, and the DC50 [1] was < 50 nM and the Dmax [2] was > 71%.

`CNC[C@H](NC(=O)[C@@H]1C[C@@H](O)CN1C(=O)[C@@H](NC(=O)COCCCCCOc1ccc(C(=O)N[C@H]2C(C)(C)[C@H](Oc3ccc(C#N)c(Cl)c3)C2(C)C)cc1)C(C)(C)C)c1ccc(-c2scnc2C)cc1` [Example 515] was tested, and the DC50 [3] was < 50 nM and the Dmax [4] was > 71%.

With `Cc1ncsc1-c1ccc([C@H](C)NC(=O)[C@@H]2C[C@@H](O)CN2C(=O)[C@@H](NC(=O)CN2CCO[C@@H](CN3CCO[C@@H](COc4ccc(N5C(=S)N(c6ccc(C#N)c(C(F)(F)F)c6)C(=O)C5(C)C)cc4)C3)C2)C(C)(C)C)cc1` [Example 667, (2S,4R)-1-((S)-2-(2-((S)-2-(((R)-2-((4-(3-(4-cyano-3-(trifluoromethyl)phenyl)-5,5-dimethyl-4-oxo-2-thioxoimidazolidin-1-yl)phenoxy)methyl)mor-pholino)methyl)mor-pholino)acetamido)-3,3-dimethylbutanoyl)-4-hydroxy-N-((S)-1-(4-(4-methylthiazol-5-yl)phenyl)ethyl)pyrrolidine-2-carboxamide] the Dmax (VCaP, read-out: VCaP Dmax (%)) was < 25% and the DC50 [5] was > 501 nM.

With `Cc1ncsc1-c1ccc([C@H](C)NC(=O)[C@@H]2C[C@@H](O)CN2C(=O)[C@@H](NC(=O)CO[C@H]2C[C@@H](N3CCN(c4ccc(C(=O)N[C@H]5C(C)(C)[C@H](Oc6ccc(C#N)c(Cl)c6)C5(C)C)cn4)CC3)C2)C(C)(C)C)cc1` [Example 845, N-((1r,3R)-3-(3-chloro-4-cyanophenoxy)-2,2,4,4-tetramethylcyclobutyl)-6-(4-((1R,3S)-3-(2-(((S)-1-((2S,4R)-4-hydroxy-2-(((S)-1-(4-(4-methylthiazol-5-yl)phenyl)ethyl)carbamoyl)pyrrolidin-1-yl)-3,3-dimethyl-1-oxobutan-2-yl)amino)-2-oxoethoxy)cyclobutyl)piperazin-1-yl)nicotinamide] the DC50 [1] was < 50 nM and the Dmax [2] was > 71%.

With `Cc1ncsc1-c1ccc([C@H](C)NC(=O)C2C[C@@H](O)CN2C(=O)C(NC(=O)CN2CCN(CCN3CCN(c4ccc(C(=O)N[C@H]5C(C)(C)[C@H](Oc6ccc(C#N)c(Cl)c6)C5(C)C)cn4)CC3)CC2)C(C)(C)C)cc1` (stereo partly drawn) [Example 789, N-((1r,3r)-3-(3-chloro-4-cyanophenoxy)-2,2,4,4-tetramethylcyclobutyl)-6-(4-(2-(4-(2-(((S)-1-((2S,4R)-4-hydroxy-2-(((S)-1-(4-(4-methylthiazol-5-yl)phenyl)ethyl)carbamoyl)pyrrolidin-1-yl)-3,3-dimethyl-1-oxobutan-2-yl)amino)-2-oxoethyl)piperazin-1-yl)ethyl)piperazin-1-yl)nicotinamide] the DC50 [1] was < 50 nM and the Dmax [2] was > 71%.

`Cc1ncsc1-c1ccc(CNC(=O)[C@@H]2C[C@@H](O)CN2C(=O)[C@@H](NC(=O)COCCC[C@@H](C)Oc2ccc(-c3ccc(N4C(=S)N(c5ccc(C#N)c(C(F)(F)F)c5)C(=O)C4(C)C)cc3)cc2)C(C)(C)C)cc1` [Example 141, (2S,4R)-1-[(2S)-2-(2-{[(4S)-4-[4-(4-{3-[4-cyano-3-(trifluoromethyl)phenyl]-5,5-dimethyl-4-oxo-2-sulfanylideneimidazolidin-1-yl}phenyl)phen-oxy]pentyl]oxy}acetamido)-3,3-dimethylbutanoyl]-4-hydroxy-N-{[4-(4-methyl-1,3-thiazol-5-yl)phenyl]methyl}pyrrolidine-2-carboxamide] was tested, and the Dmax (VCaP, read-out: VCaP Dmax (%)) was > 71% and the DC50 (read-out: VCaP DC50; concentration that caused 50% Androgen Receptor degradation, VCaP cells (Table 32)) was < 50 nM.

In the case of `Cc1ncsc1-c1ccc([C@H](C)NC(=O)[C@@H]2C[C@@H](OC(=O)CCC(=O)O)CN2C(=O)[C@@H](NC(=O)COCCN2CCN(c3ccc(C(=O)N[C@H]4C(C)(C)[C@H](Oc5ccc(C#N)c(Cl)c5)C4(C)C)cn3)CC2)C(C)(C)C)cc1` [Example 862, 4-(((3R,5S)-1-((S)-2-(2-(2-(4-(5-(((1r,3r)-3-(3-chloro-4-cyanophenoxy)-2,2,4,4-tetramethylcyclobutyl)carbamoyl)pyridin-2-yl)piperazin-1-yl)ethoxy)acetamido)-3,3-dimethylbutanoyl)-5-(((S)-1-(4-(4-methylthiazol-5-yl)phenyl)ethyl)carbamoyl)pyrrolidin-3-yl)oxy)-4-oxobutanoic acid], the DC50 [1] is reported as < 50 nM and the Dmax [2] is reported as > 71%.

For `Cc1ncoc1-c1ccc(CNC(=O)[C@@H]2C[C@@H](O)CN2C(=O)[C@@H](NC(=O)COCCCOCCCCOc2ccc(N3C(=S)N(c4ccc(C#N)c(Cl)c4)C(=O)C3(C)C)cc2F)C(C)(C)C)cc1` [Example 44, (2S,4R)-1-[(2S)-2-{2-[3-(4-{4-[3-(3-chloro-4-cyanophenyl)-5,5-dimethyl-4-oxo-2-sulfanylideneimidazolidin-1-yl]-2-fluorophenoxy}butoxy)propoxy]acetamido}-3,3-dimethylbutanoyl]-4-hydroxy-N-{[4-(4-methyl-1,3-oxazol-5-yl)phenyl]methyl}pyrrolidine-2-carboxamide], the Dmax (VCaP, read-out: VCaP Dmax (%)) was > 71% and the DC50 (read-out: VCaP DC50; concentration that caused 50% Androgen Receptor degradation, VCaP cells) was < 50 nM.

In the case of `Cc1ncsc1-c1ccc([C@H](C)NC(=O)[C@@H]2C[C@@H](O)CN2C(=O)[C@H](C(C)C)n2cc(OCCCOCCCn3cnc(-c4ccc(N5C(=S)N(c6ccc(C#N)c(C(F)(F)F)c6)C(=O)C5(C)C)cc4)c3)cn2)cc1` [Example 648, (2S,4R)-1-((S)-2-(4-(3-(3-(4-(4-(3-(4-cyano-3-(trifluoromethyl)phenyl)-5,5-dimethyl-4-oxo-2-thioxoimidazolidin-1-yl)phenyl)-1H-imidazol-1-yl)propoxy)propoxy)-1H-pyrazol-1-yl)-3-methylbutanoyl)-4-hydroxy-N-((S)-1-(4-(4-methylthiazol-5-yl)phenyl)ethyl)pyrrolidine-2-carboxamide], the Dmax (VCaP, read-out: VCaP Dmax (%)) is reported as < 25% and the DC50 [5] is reported as > 501 nM.

`Cc1ncsc1-c1ccc([C@H](C)NC(=O)[C@@H]2CC(OC(=O)[C@@H]3CCCN3)CN2C(=O)[C@@H](NC(=O)COCCCCCNc2ccc(C(=O)N[C@H]3C(C)(C)[C@H](Oc4ccc(C#N)c(Cl)c4)C3(C)C)cc2)C(C)(C)C)cc1` (stereo partly drawn) [Example 461] was tested, and the DC50 [3] was < 50 nM and the Dmax [4] was > 71%.

Compound `CC(NC(=O)C1CC(O)CN1C(=O)C(NC(=O)COCCN1CC2CC1CN2c1ccc(C(=O)NC2C(C)(C)C(Oc3ccc(C#N)c(Cl)c3)C2(C)C)cn1)C(C)(C)C)c1ccc(-c2scnc2CO)cc1` [Example 668, N-((1r,3R)-3-(3-chloro-4-cyanophenoxy)-2,2,4,4-tetramethylcyclobutyl)-6-((1R,4R)-5-(2-(2-(((S)-1-((2S,4R)-4-hydroxy-2-(((S)-1-(4-(4-(hydroxymethyl)thiazol-5-yl)phenyl)ethyl)carbam-oyl)pyrrolidin-1-yl)-3,3-dimethyl-1-oxobutan-2-yl)amino)-2-oxoethoxy)ethyl)-2,5-diazabicyclo[2.2.1]hept-an-2-yl)nicotinamide] has a DC50 [1] of 51 to 500 nM and a Dmax (VCaP, read-out: VCaP Dmax (%), VCaP cells; Table 36) of 26 to 50%.
